Here are results for one compound from publication PMC11220031, “Structural basis for the inhibition mechanism of LAT1-4F2hc complex by JPH203” (Cell Discovery, 2024).

Structures are written as SMILES. Where a chain is given by its changes, count along the chain named.

Assay in all cases: microscale thermophoresis (MST)
What all share (conditions): read-out: binding affinity

Experiment [1] deals with T1, LAT1–4F2hc complex (Homo sapiens, UniProt Q01650, F400V).
T1 construct: gene SLC7A5; full-length LAT1–4F2hc heteromeric complex, purified by size-exclusion chromatography; host and tags only in supplement; with Amino acid transporter heavy chain SLC3A2 (4F2 cell-surface antigen heavy chain)

The target in experiment [2] is T2, LAT2–4F2hc complex (Homo sapiens, UniProt Q9UHI5).
T2 construct: gene SLC7A8; LAT2–4F2hc heteromeric complex used for MST; construct, host and tags only in supplement; with Amino acid transporter heavy chain SLC3A2 (4F2 cell-surface antigen heavy chain)
T2 sequence (Q9UHI5 1-535): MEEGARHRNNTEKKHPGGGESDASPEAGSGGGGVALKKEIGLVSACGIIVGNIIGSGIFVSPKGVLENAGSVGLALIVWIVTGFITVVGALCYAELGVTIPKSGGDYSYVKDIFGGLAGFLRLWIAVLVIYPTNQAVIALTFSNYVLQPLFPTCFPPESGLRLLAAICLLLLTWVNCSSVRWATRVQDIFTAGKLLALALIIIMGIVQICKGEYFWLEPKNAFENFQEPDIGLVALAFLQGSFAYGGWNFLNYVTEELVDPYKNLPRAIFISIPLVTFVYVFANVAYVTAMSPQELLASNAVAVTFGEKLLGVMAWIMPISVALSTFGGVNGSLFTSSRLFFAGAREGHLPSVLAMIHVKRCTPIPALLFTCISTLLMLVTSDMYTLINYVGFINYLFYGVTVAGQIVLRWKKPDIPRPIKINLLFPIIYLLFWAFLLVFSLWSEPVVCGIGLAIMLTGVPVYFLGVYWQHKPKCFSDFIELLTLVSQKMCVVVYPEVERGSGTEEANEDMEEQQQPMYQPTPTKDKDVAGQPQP
T2 sequence (P08195 2-529 partner): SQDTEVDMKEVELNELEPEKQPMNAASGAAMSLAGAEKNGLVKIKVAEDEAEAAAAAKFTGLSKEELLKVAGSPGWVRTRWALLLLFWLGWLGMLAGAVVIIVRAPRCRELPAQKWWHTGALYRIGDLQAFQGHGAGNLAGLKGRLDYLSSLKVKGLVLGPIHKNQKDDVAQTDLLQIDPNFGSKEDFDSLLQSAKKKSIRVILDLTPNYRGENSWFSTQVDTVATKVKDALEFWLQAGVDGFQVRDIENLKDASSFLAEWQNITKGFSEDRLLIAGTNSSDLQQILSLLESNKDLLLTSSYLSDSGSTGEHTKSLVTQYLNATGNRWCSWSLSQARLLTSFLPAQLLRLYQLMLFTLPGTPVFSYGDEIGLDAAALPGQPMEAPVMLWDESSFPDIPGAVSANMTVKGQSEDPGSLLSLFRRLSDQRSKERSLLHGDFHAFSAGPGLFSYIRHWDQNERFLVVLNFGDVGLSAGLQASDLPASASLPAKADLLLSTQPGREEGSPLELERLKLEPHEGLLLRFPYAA

Experiment [3] addresses T3, LAT1–4F2hc complex (Homo sapiens, UniProt Q01650).
T3 construct: gene SLC7A5; full-length LAT1–4F2hc heteromeric complex, purified by size-exclusion chromatography; host and tags only in supplement; with Amino acid transporter heavy chain SLC3A2 (4F2 cell-surface antigen heavy chain)

Experiment [4] addresses T4, LAT2–4F2hc complex (Homo sapiens, UniProt Q9UHI5, V391F).
T4 construct: gene SLC7A8; LAT2–4F2hc heteromeric complex used for MST; construct, host and tags only in supplement; with Amino acid transporter heavy chain SLC3A2 (4F2 cell-surface antigen heavy chain)
T4 sequence (Q9UHI5 1-535 V391F): T2 sequence (Q9UHI5 1-535) with V391F
T4 sequence (P08195 2-529 partner): T2 sequence (P08195 2-529 partner)

The target of experiment [5] is T5, LAT2–4F2hc complex (Homo sapiens, UniProt Q9UHI5, F250Y).
T5 construct: gene SLC7A8; LAT2–4F2hc heteromeric complex used for MST; construct, host and tags only in supplement; with Amino acid transporter heavy chain SLC3A2 (4F2 cell-surface antigen heavy chain)
T5 sequence (Q9UHI5 1-535 F250Y): T2 sequence (Q9UHI5 1-535) with F250Y
T5 sequence (P08195 2-529 partner): T2 sequence (P08195 2-529 partner)

For experiment [6], the target named is T6, LAT1–4F2hc complex (Homo sapiens, UniProt Q01650, Y259F).
T6 construct: gene SLC7A5; full-length LAT1–4F2hc heteromeric complex, purified by size-exclusion chromatography; host and tags only in supplement; with Amino acid transporter heavy chain SLC3A2 (4F2 cell-surface antigen heavy chain)
T6 sequence (Q01650 2-507 Y259F, one chain of several): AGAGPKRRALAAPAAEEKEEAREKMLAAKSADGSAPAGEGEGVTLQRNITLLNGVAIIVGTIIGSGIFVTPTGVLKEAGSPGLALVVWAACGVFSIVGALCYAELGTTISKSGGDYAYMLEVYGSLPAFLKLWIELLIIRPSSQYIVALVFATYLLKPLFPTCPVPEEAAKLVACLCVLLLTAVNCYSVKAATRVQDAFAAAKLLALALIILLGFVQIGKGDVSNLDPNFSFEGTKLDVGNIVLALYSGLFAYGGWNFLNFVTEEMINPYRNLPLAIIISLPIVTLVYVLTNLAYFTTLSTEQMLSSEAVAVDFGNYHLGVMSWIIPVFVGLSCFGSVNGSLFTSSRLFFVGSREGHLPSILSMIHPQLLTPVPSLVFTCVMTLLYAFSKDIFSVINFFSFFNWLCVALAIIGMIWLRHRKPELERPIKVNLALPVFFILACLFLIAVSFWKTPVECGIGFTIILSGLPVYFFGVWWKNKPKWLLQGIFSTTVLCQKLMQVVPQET

T1 sequence (Q01650 2-507 F400V, one chain of several): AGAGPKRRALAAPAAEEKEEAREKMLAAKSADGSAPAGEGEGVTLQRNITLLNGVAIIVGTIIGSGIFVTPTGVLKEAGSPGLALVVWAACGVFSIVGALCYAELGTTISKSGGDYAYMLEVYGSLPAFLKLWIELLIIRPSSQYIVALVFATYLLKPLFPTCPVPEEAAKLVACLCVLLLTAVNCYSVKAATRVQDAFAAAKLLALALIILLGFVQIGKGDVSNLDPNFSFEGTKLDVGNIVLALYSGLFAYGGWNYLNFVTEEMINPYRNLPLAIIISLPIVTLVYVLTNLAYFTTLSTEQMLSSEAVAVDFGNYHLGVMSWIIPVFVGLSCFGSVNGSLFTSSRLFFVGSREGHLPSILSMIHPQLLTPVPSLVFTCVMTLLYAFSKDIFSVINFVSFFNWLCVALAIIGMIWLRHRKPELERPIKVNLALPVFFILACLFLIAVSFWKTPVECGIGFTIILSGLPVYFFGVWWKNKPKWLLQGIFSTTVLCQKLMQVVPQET
T3 sequence (Q01650 2-507, one chain of several): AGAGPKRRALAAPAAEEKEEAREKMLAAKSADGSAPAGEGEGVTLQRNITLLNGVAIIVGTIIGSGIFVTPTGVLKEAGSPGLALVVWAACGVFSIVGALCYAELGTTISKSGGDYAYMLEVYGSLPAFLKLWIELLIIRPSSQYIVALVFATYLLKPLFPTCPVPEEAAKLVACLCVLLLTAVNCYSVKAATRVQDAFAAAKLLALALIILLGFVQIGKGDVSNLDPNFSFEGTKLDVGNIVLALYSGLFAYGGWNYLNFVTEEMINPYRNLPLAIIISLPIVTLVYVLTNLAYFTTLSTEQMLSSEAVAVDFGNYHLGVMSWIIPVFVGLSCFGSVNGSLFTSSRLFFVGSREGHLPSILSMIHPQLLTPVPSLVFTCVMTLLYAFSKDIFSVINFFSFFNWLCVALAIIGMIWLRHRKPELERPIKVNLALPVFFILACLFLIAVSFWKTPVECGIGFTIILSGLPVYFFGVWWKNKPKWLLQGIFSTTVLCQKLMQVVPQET

Take `Nc1cc(COc2c(Cl)cc(C[C@H](N)C(=O)O)cc2Cl)c2oc(-c3ccccc3)nc2c1` [JPH203]: the Kd was 6.21 ± 1.58 µM in experiment [1]; 4.51 ± 1.35 µM in experiment [2]; 1.48 ± 0.28 µM in experiment [3]; 1.78 ± 0.65 µM in experiment [4]; 2.55 ± 0.96 µM in experiment [5]; 3.81 ± 1.26 µM in experiment [6].
